What was measured:
D-Dimer response = assay: Reduction in IAS and FAS D-Dimer response in patients with COVID-19 infection; assay type: in vivo, human; settings: COVID-19 patients, infused at 12 mg/hr for up to 7 days
Procedure: D-Dimer formation is elevated in patients with ARDS and COVID. A study was performed to determine the ability of TRV027 to reduce the effects of D-Dimer formation. […] Each group was monitored for an IAS D-Dimer response (>30% reduction) and a FAS D-Dimer response (>30% reduction). In the control group, 2/8 patients had greater than a 30% reduction in the IAS D-Dimer response and 1/7 patients had greater than a 30% reduction in the FAS D-Dimer response. […] Therefore, the data illustrates the effect of a peptide as provided for herein can have on the reduction in the D-Dimer response. It is anticipated that the reduction in the D-Dimer response as measured by these assays will lead to clinical benefit in patients that are infected and/or hospitalized with COVID-19.

rat AT1aR = biological target: T1, rat AT1aR (Rattus norvegicus, UniProt P25095); assay: PathHunter β-arrestin-2 recruitment assay, rat AT1aR; assay type: cell-based; settings: PathHunter β-arrestin HEK293 cells; inactive = EC50 greater than 10 uM
T1 sequence (P25095 1-359): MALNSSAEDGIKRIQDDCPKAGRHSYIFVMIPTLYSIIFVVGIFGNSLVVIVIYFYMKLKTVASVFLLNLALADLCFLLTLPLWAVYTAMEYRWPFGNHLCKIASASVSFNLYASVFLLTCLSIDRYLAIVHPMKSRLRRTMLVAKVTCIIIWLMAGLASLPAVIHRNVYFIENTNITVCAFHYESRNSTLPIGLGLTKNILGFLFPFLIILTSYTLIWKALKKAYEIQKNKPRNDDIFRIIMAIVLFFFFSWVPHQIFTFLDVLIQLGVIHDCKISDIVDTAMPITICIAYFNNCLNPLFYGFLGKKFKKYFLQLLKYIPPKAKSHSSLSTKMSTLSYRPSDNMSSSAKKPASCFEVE
Procedure: The proximal event in β-arrestin function mediated by GPCRs is recruitment to receptors following ligand binding and receptor phosphorylation by GRK's. Thus, the measure of β-arrestin recruitment was used to determine ligand efficacy for β-arrestin function.
B-arrestin-2 recruitment to the human and rat angiotensin 2 type 1 receptor (human AT1R and rat AT1aR, respectively) was measured with the PathHunter™ β-arrestin assay (DiscoveRx Corporation, Fremont Calif.). Cells, plasmid(s), and detection reagent(s) were purchased from DiscoveRx, and assays were performed per the manufacturer's instructions. Human AT1R and rat AT1aR were cloned into the pCMV-ProLink vector, verified by sequencing, and transfected into PathHunter β-arrestin HEK293 cells. Stably transfected clonal cell lines were selected with Hygromycin and G418. These clonal cell lines were used for all experiments.
For assays, 25,000 cells were seeded per well in 96-well microplates in volumes of 90 μL and allowed to grow overnight at 37° C. in 5% CO2. Peptides provided herein were dissolved in deionized water to a concentration of 1 mM. […] The microplates were then incubated at room temperature for 60 minutes, and then luminescence was measured using a NOVOstar microplate reader purchased from BMG Labtech. B-arrestin-2 recruitment to receptors was measured as relative luminescence intensity expressed in arbitrary units.

[1] = biological target: T2, human angiotensin 2 type 1 receptor (human, UniProt P30556 1-359); assay: cell-based or functional assay
T2 sequence (looked up): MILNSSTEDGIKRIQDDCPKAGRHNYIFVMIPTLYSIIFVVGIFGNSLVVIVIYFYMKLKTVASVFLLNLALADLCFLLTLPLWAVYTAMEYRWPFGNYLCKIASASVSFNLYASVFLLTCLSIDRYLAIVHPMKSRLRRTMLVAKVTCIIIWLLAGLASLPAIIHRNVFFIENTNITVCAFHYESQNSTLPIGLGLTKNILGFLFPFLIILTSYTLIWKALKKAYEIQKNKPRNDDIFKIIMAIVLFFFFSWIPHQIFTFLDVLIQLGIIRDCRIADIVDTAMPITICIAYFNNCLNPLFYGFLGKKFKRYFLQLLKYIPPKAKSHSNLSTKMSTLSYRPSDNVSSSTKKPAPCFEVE

[2] = biological target: T3, rat angiotensin 2 type 1 receptor (rat, UniProt P25095 1-359); assay: cell-based or functional assay
T3 sequence (looked up): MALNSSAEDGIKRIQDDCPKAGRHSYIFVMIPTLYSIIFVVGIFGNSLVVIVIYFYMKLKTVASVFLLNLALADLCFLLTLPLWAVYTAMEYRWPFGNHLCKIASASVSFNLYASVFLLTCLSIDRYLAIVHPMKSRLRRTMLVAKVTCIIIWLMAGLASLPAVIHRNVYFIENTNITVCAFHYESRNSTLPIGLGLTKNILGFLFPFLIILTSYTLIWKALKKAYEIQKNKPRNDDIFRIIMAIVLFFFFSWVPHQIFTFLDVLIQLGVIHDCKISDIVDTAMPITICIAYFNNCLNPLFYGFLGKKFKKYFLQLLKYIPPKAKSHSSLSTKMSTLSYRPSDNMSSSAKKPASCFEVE

CC[C@H](C)[C@H](NC(=O)[C@H](Cc1ccc(O)cc1)NC(=O)[C@@H](NC(=O)[C@H](CCCNC(=N)N)NC(=O)CNC)C(C)C)C(=O)N[C@@H](Cc1cnc[nH]1)C(=O)N1CCC[C@H]1C(=O)N[C@H](C)C(=O)O [SEQ ID NO: 27, Sar-Arg-Val-Tyr-Ile-His-Pro-D-Ala-OH]
patients with greater than 30% reduction in the FAS D-Dimer response (D-Dimer response): 4 out of 9
patients with greater than 30% reduction in the IAS D-Dimer response (D-Dimer response): 5 out of 11

CCCCC(=O)N(Cc1ccc(-c2ccccc2-c2nnn[nH]2)cc1)[C@H](C(=O)O)C(C)C [Valsartan]
rat AT1aR b-arrestin2 EC50 (M) (rat AT1aR): inactive

ARVYIHPA (NMAla (N-Methyl-L-alanine) at X1; D-Ala at X8) [SEQ ID NO: 44 (NMAla-Arg-Val-Tyr-Ile-His-Pro-D-Ala-OH)]
b-arrestin2 Max (%) [1]: 47.3%
b-arrestin2 Max (%) [2]: 71.9%
